Measurements: PMC9884426, “A phase 1 clinical trial of the repurposable acetyllysine mimetic, n-methyl-2-pyrrolidone (NMP), in relapsed or refractory multiple myeloma” (Clinical Epigenetics, 2023)
Several values for one entry are separate records, joined by “and”; a condition that tells them apart may be missing. Equal values may be shown once. Read-outs that look alike come from different tables or passages of the source.

Experiment: Plasma pharmacokinetics of oral NMP by LCMSMS
Assay type: in vivo, human
Settings: plasma, plasma
Procedure: Blood samples were taken from patients before NMP and at one, two, four, eight and 24 h post dose. Plasma samples (20 μl) were prepared by adding five volumes of methanol containing deuterated internal standard. The samples were vortexed then centrifuged, and the supernatant was transferred to a vial and injected onto the LCMSMS. The LCMSMS system consisted of a Shimadzu UHPLC with a SCIEX 6500QTrap, a KinetexC18 (3 × 50 mm, 2.6 μm) column and using a gradient of 0.1% formic acid and acetonitrile. The initial conditions were 0.5 ml/min and 2% acetonitrile; this was held for 1 min then increased to 20% acetonitrile at 2 min then increased to 70% acetonitrile and held for 0.5 min. Equilibration time was 0.5 min. MRMs for NMP were 100 → 58, 100 → 69, 100 → 41 and for the internal standard d9NMP 109 → 62, […]. PK analysis was performed using Pkanalix (version 2021R1. Antony, France: Lixoft SAS, 2021).

[1] = oral 25 mg, patient RMH-01 occasion 6
[2] = oral 50 mg, average of N = 5 profiles
[3] = oral 50 mg, individual profiles, patient RMH-01 occasions 1-5
[4] = oral 100 mg, average of N = 5 profiles
[5] = oral 100 mg, individual profiles, patient RMH-02 occasions 1-5
[6] = oral 200 mg, average of N = 8 profiles
[7] = oral 200 mg, individual profiles (PMC-03, MON-04, MON-06, MON-07, PMC-08)
[8] = oral 200 mg, individual profiles (PMC-03, MON-04, PMC-05, MON-06, MON-07, PMC-08)
[9] = oral 300 mg, average of N = 3 profiles
[10] = oral 300 mg, individual profiles (PMC-09, MON-10, MON-11)
[11] = oral 400 mg, average of N = 2 profiles
[12] = oral 400 mg, individual profiles (MON-11 occasion 2, MON-12)
[13] = oral 500 mg, patient MON-11 occasion 3
[14] = oral 600 mg, patient MON-11 occasion 4
[15] = oral 700 mg, patient MON-11 occasion 5
[16] = oral 800 mg, patient MON-11 occasion 6

Q: With `CN1CCCC1=O` [NMP, N-methyl-2-pyrrolidone] as the compound, how does the Cmax (human, po, 700 mg, oral 700 mg, patient MON-11 occasion 5, read-out: Cmax) read?
A: 12400 ng/mL

Q: What about the half-life (human, po, 700 mg, oral 700 mg, patient MON-11 occasion 5, read-out: Half-life (converted)) of the same compound?
A: 2.35 h

Q: And the Tmax (human, po, 700 mg, oral 700 mg, patient MON-11 occasion 5, read-out: Tmax)?
A: 0.5 h

Q: And the Cmax (human, po, 800 mg, 800 mg dose level, oral, one patient, read-out: highest Cmax achieved)?
A: ~168 µM

Q: And the AUC (human, po, 800 mg, oral 800 mg, patient MON-11 occasion 6, read-out: AUC)?
A: 90300 ng·h/mL

Q: And the Cmax (human, po, 800 mg, oral 800 mg, patient MON-11 occasion 6, read-out: Cmax)?
A: 16700 ng/mL

Q: And the half-life (human, po, 800 mg, oral 800 mg, patient MON-11 occasion 6, read-out: Half-life (converted))?
A: 1.75 h

Q: And the Tmax (human, po, 800 mg, oral 800 mg, patient MON-11 occasion 6, read-out: Tmax)?
A: 1 h

Q: What about the Cmax (human, po, 800 mg, oral, one patient, read-out: Maximum plasma concentration (Cmax), highest achieved) of the same compound?
A: 16700 ng/mL

Q: What about the half-life (human, po, all dose levels 25-800 mg oral, N = 28 profiles, read-out: Half-life, Overall Average (converted)) of the same compound?
A: 1.55 h

Q: What about the AUC (human, po, all dose levels 25-800 mg oral, N = 29 profiles, read-out: AUC, Overall Average) of the same compound?
A: 16900 ng·h/mL

Q: And the Cmax (human, po, all dose levels 25-800 mg oral, N = 29 profiles, read-out: Cmax, Overall Average)?
A: 5290 ng/mL

Q: What about the Tmax (human, po, all dose levels 25-800 mg oral, N = 29 profiles, read-out: Tmax, Overall Average) of the same compound?
A: ~0.5 h

Q: And the CL/F [1]?
A: 16.65 L⋅h⁻¹

Q: And the V/F [1]?
A: 20.83 L

Q: What about the “CL/F, Average” value [2] of the same compound?
A: 23.62 L⋅h⁻¹

Q: What about the “V/F, Average” value [2] of the same compound?
A: 36.62 L

Q: What about the AUC [3] of the same compound?
A: 1.86 h⋅mg⋅L⁻¹ and 1.88 h⋅mg⋅L⁻¹ and 2.09 h⋅mg⋅L⁻¹ and 2.18 h⋅mg⋅L⁻¹

Q: What about the CL/F [3] of the same compound?
A: 17.68 L⋅h⁻¹ and 26.86 L⋅h⁻¹ and 26.66 L⋅h⁻¹ and 23.93 L⋅h⁻¹ and 22.97 L⋅h⁻¹

Q: What about the Cmax [3] of the same compound?
A: 1.24 mg⋅L⁻¹ and 1.25 mg⋅L⁻¹ and 1.04 mg⋅L⁻¹ and 1.06 mg⋅L⁻¹

Q: And the V/F [3]?
A: 30.85 L and 38.66 L and 41.02 L and 35.88 L and 36.67 L

Q: What about the half-life [3] of the same compound?
A: 0.99 h and 1.07 h and 1.04 h and 1.11 h

Q: And the “CL/F, Average” value [4]?
A: 14.04 L⋅h⁻¹

Q: And the “V/F, Average” value [4]?
A: 36.98 L

Q: And the AUC [5]?
A: 7.25 h⋅mg⋅L⁻¹ and 6.95 h⋅mg⋅L⁻¹ and 7.61 h⋅mg⋅L⁻¹ and 6.88 h⋅mg⋅L⁻¹

Q: What about the CL/F [5] of the same compound?
A: 14.35 L⋅h⁻¹ and 13.79 L⋅h⁻¹ and 14.4 L⋅h⁻¹ and 13.13 L⋅h⁻¹ and 14.53 L⋅h⁻¹

Q: And the Cmax [5]?
A: 2.51 mg⋅L⁻¹ and 2.52 mg⋅L⁻¹ and 2.43 mg⋅L⁻¹ and 2.65 mg⋅L⁻¹

Q: And the V/F [5]?
A: 34.92 L and 41.77 L and 37.5 L and 34.02 L and 36.67 L

Q: And the “CL/F, Average” value [6]?
A: 25.52 L⋅h⁻¹

Q: What about the “V/F, Average” value [6] of the same compound?
A: 49.77 L

Q: And the CL/F [7]?
A: 31.82 L⋅h⁻¹ and 24.02 L⋅h⁻¹ and 25.05 L⋅h⁻¹ and 20.34 L⋅h⁻¹ and 18.2 L⋅h⁻¹ and 9.1 L⋅h⁻¹ and 57.76 L⋅h⁻¹ and 17.85 L⋅h⁻¹

Q: What about the V/F [7] of the same compound?
A: 64.35 L and 55.72 L and 43.19 L and 37.65 L and 36.79 L and 26.02 L and 87.19 L and 47.25 L

Q: What about the AUC [8] of the same compound?
A: 6.29 h⋅mg⋅L⁻¹ and 8.33 h⋅mg⋅L⁻¹ and 7.98 h⋅mg⋅L⁻¹ and 9.83 h⋅mg⋅L⁻¹ and 5.49 h⋅mg⋅L⁻¹ and 10.99 h⋅mg⋅L⁻¹ and 21.99 h⋅mg⋅L⁻¹ and 3.46 h⋅mg⋅L⁻¹ and 11.21 h⋅mg⋅L⁻¹

Q: And the Cmax [8]?
A: 2.33 mg⋅L⁻¹ and 3.98 mg⋅L⁻¹ and 4.43 mg⋅L⁻¹ and 5.05 mg⋅L⁻¹ and 2.05 mg⋅L⁻¹ and 4.95 mg⋅L⁻¹ and 7.26 mg⋅L⁻¹ and 2.64 mg⋅L⁻¹ and 3.79 mg⋅L⁻¹

Q: And the “CL/F, Average” value [9]?
A: 15.62 L⋅h⁻¹

Q: And the “V/F, Average” value [9]?
A: 33.93 L

Q: What about the AUC [10] of the same compound?
A: 32.55 h⋅mg⋅L⁻¹ and 12.73 h⋅mg⋅L⁻¹ and 21.3 h⋅mg⋅L⁻¹

Q: What about the CL/F [10] of the same compound?
A: 9.22 L⋅h⁻¹ and 23.57 L⋅h⁻¹ and 14.08 L⋅h⁻¹

Q: And the Cmax [10]?
A: 6.89 mg⋅L⁻¹ and 6.81 mg⋅L⁻¹

Q: And the V/F [10]?
A: 22.09 L and 38.59 L and 41.1 L

Q: What about the half-life [10] of the same compound?
A: 1.13 h and 2.02 h

Q: What about the “CL/F, Average” value [11] of the same compound?
A: 19.53 L⋅h⁻¹

Q: And the “V/F, Average” value [11]?
A: 42.44 L

Q: What about the AUC [12] of the same compound?
A: 15.99 h⋅mg⋅L⁻¹

Q: What about the CL/F [12] of the same compound?
A: 14.03 L⋅h⁻¹ and 25.02 L⋅h⁻¹

Q: And the Cmax [12]?
A: 7.63 mg⋅L⁻¹

Q: And the V/F [12]?
A: 35.95 L and 48.93 L

Q: What about the half-life [12] of the same compound?
A: 1.36 h

Q: And the CL/F [13]?
A: 12.33 L⋅h⁻¹

Q: And the V/F [13]?
A: 35.2 L

Q: What about the CL/F [14] of the same compound?
A: 10.59 L⋅h⁻¹

Q: What about the V/F [14] of the same compound?
A: 33.11 L

Q: What about the CL/F [15] of the same compound?
A: 12.16 L⋅h⁻¹

Q: And the V/F [15]?
A: 41.26 L

Q: And the CL/F [16]?
A: 8.86 L⋅h⁻¹

Q: What about the V/F [16] of the same compound?
A: 22.43 L
